≈ marks a conversion by molar mass, not a printed value. Read-outs that look alike come from different tables or passages of the source.
Key:
[1] = system: Klebsiella pneumoniae, ATCC 31,488; assay: Antibacterial activity, serial dilutions in liquid broth (MIC/MBC); assay type: cell-based; details: K. pneumoniae (G −)
Description: (§1) All synthesized complexes and the ligand were screened for their in vitro antibacterial activity against Gram-positive bacteria (Staphylococcus aureus), Gram-negative bacteria (Escherichia coli, Klebsiella pneumoniae) and antifungal activity (Candida albicans) strains using the paper disc diffusion technique (for the qualitative determination) and the serial dilutions in liquid broth method (for determination of MIC). Furacillinum and nystatine were used as standard drugs.
(§2) The antibacterial activity of complexes and also of their prototype furacilin has been determined under liquid nutritive environment (2% of peptonate bullion (pH 7.0)) using the successive dilutions method. Escherichia coli, Klebsiella pneumoniae, and Staphylococcus aureus stems were used as reference culture for the in vitro experiment. The dissolution of studied substances in dimethylformamide, microorganism cultivation, suspension obtaining, determination of minimal inhibition concentration (MIC) and minimal bactericide concentration (MBC) have been carried out according to the method previously reported.

[2] = system: Escherichia coli, ATCC 25922; assay: as above; assay type: cell-based; details: E. coli (G −)
Description: as §1, §2

[3] = system: Staphylococcus aureus, ATCC 25923; assay: as above; assay type: cell-based; details: S. aureus (G +)
Description: as §1, §2

[4] = system: SKBR-3 human breast cancer cell line; assay: Alamar blue cell viability assay; assay type: cell-based; details: 48 h treatment, 10 µM, relative to untreated control
Description: (§3) Compounds HL, 1, 5, 6 and 8 were dissolved in dimethyl sulfoxide (DMSO; Sigma-Aldrich, Ayrshire, UK) and stored at 2–8 °C. Compounds 2, 3, 4 and 7 were dissolved in pyridine (Fluka, Munich, Germany). A stock solution of 10 mM in the proper solvents was prepared; as for the final concentration (10 µM), successive dilution of the stock solution with culture medium was made.
(§4) The breast cancer cell lines were cultured as follow: MCF-7 human breast cancer cell line (ATCC, Rockville, MD, USA) was cultured in EMEM (Sigma Aldrich, Munich, Germany) supplemented with 10% FCS (fetal bovine serum, PromoCell, Heidelberg, Germany), 1% penicillin-streptomycin (Pen/Strep, 10,000 IU/mL; PromoCell, Heidelberg, Germany), 1% nonessential amino acids and 1% glutamine (PromoCell, Heidelberg, Germany). SKBR-3 human breast cancer cell line was cultured in McCoy’s 5a Medium Modified (Sigma Aldrich, Munich, Germany) supplemented with 10% FCS (fetal bovine serum, PromoCell, Heidelberg, Germany), 1% penicillin-streptomycin (Pen/Strep, 10,000 IU/mL; PromoCell, Heidelberg, Germany). A375 human melanoma cell line was cultured in DMEM containing 15% FCS (fetal bovine serum, PromoCell, Heidelberg, Germany) and 1% penicillin-streptomycin (Pen/Strep, 10,000 IU/mL; PromoCell, Heidelberg, Germany). Cells were maintained at an atmosphere of 5% CO2 at 37 °C. NCI-H1573 lung adenocarcinoma cell line was cultured in RPMI-1640 Medium (ATCC, Rockville, MD, USA) supplemented with 10% FCS (fetal bovine serum, PromoCell, Heidelberg, Germany), 1% penicillin-streptomycin (Pen/Strep, 10,000 IU/mL; PromoCell, Heidelberg, Germany).
(§5) All tested cell lines were seeded onto a 96-well microplate ([…]) and left overnight to attach to the bottom of the well. After 24 h, the amount of 150 μL of the tested substances dissolved into the culture medium was added and cells were incubated for 48 h. After the incubation period, a volume of 15 μL of the Alamar blue (BioSource, Camarillo, CA, USA) solution was added. After another 10 h of incubation at 37 °C, the samples were spectrophotometrically analyzed using a microplate reader. The wave lengths used were 570 nm and 600 nm, respectively. Wells with untreated cells were used as controls. The highest concentration of DMSO and pyridine (0.1%) used to prepare stock solutions was also tested, in order to identify the solvent activity. All measurements were performed in triplicate and data were presented as mean ± standard deviation.

[5] = system: MCF-7 human breast cancer cell line; assay: Alamar blue cell viability assay; assay type: cell-based; details: 48 h treatment, 10 µM, relative to untreated control
Description: as §3, §4, §5

[6] = system: A375 human melanoma cell line; assay: Alamar blue cell viability assay; assay type: cell-based; details: 48 h treatment, 10 µM, relative to untreated control
Description: as §3, §4, §5

[7] = system: NCI-H1573 lung adenocarcinoma cell line; assay: Alamar blue cell viability assay; assay type: cell-based; details: 48 h treatment, 10 µM, relative to untreated control
Description: as §3, §4, §5

[8] = Qualitative solubility in organic solvents; assay type: physicochemical
Candida albicans = assay: Antifungal (antimycotic) activity, liquid Sabouraud medium (MIC/MBC); assay type: cell-based; details: C. albicans
Description: as §1
Antimycotic properties of the complexes were investigated in vitro on laboratory stem Candida albicans. The activity has been determined in a liquid Sabouraud nutritive environment (pH 6.8). The inoculates were prepared from fungi stems which were harvested over 3–7 days. Their concentration in suspension is (2–4) × 10^6 colonies form unities in milliliter. Sowings for levures and micelles were incubated at 37 °C during 7 and 14 days, respectively.

[9] = Solubility in compendial aqueous media; assay type: physicochemical; details: 37 °C, 30 min, mean ± standard deviation, n = 3
Description: Solubility assessment was conducted in compendial aqueous solutions prepared according to United States Pharmacopoeia USP39/NF34): hydrochloric acid 0.1 N pH 1.2, acetate buffer pH 4.5 and phosphate buffer 6.8. These buffer systems are routinely used for screening of drug dissolution testing and they simulate the pH values of proximal gastrointestinal regions. The standard samples were prepared by diluting the stock solution of 80 µg/mL in dimethyl sulfoxide (with 0.2% pyridine, v/v) with corresponding media. The reagents were of analytical grade and used as received.
The assay was performed using a SpectraMax Plus 84 Plate reader reader (Sunnyvale, CA, USA), Molecular Devices LLC (US), equiped with SoftMax software version 6.4.2 (Sunnyvale, CA, USA). Separate plates were loaded with standard solutions in nine concentrations (0.2 to 80 µg/mL). For evaluation of the aqueous solubility, the samples were prepared in triplicate by adding 10 µL of the stock solution to the wells loaded with 190 µL of each buffer, using MultiScreen HTS plates (PCF, code MSSLBPC, Merck Millipore, Darmstadt, Germany). After 30 minutes of incubation at 37 ± 0.5 °C under agitation (250 rpm, IKA KS 4000 ic control, IKA, Staufen, Germany), the plates were filtrated under vacuum using a Vac-Man 96 Vacuum manifold (Promega Corporation, Madison, WI, USA). The solutions were collected in V-bottom polypropylene 96-well microplates (Greiner Bio-One, Kremsmünster, Austria). Volumes of 100 µL were transferred to UV-Star 96-well microplate with flat bottom (Chimney well, Grained Bio-One) and diluted by addition of 100 µL of the corresponding medium. The absorbance corresponding to each well was determined at fixed wavelengths: 280, 300, 320, 340, 360 and 800 nm. The reduced value of absorbance, calculated by the sum of the values recorded at the six wavelengths, were used for the calibration curve and subsequent determination of concentration in each solubility sample.

[10] = Hydrochloric Acid 0.1 N (pH = 1.2)

| Compound | LC50 (Daphnia magna; incubation period 24 h) | LC50 (Daphnia magna; incubation period 48 h) | MBC [1] | MIC [1] | MBC [2] | MIC [2] | MBC [3] | MIC [3] | Viability % [4] | Viability % [5] | Viability % [6] | Viability % [7] | solubility in organic solvents (qualitative) [8] | MBC (Candida albicans) | MIC (Candida albicans) | solubility in compendial media ([9]; Acetate Buffer (pH = 4.5)) | solubility in compendial media [9, 10] | solubility in compendial media ([9]; Phosphate Buffer (pH = 6.8)) | LC50 of copper acetate relative to the perchlorate (Daphnia magna; after 24 h of exposure, printed as 'lower') |
| --- | --- | --- | --- | --- | --- | --- | --- | --- | --- | --- | --- | --- | --- | --- | --- | --- | --- | --- | --- |
| [Cl-].[Cl-].[Zn+2] [ZnCl2] | 15.4 µM | 0.89 µM | – | – | – | – | – | – | – | – | – | – | – | – | – | – | – | – | – |
| COc1cccc(C=NNC(=O)c2ccncc2)c1[O-].O.[Cu+2].[O-][Cl+3]([O-])([O-])[O-] [complex 4, [Cu(L)(ClO4)]·H2O] | – | – | 500 µg/mL | 250 µg/mL | 500 µg/mL | 250 µg/mL | 0.7 µg/mL | 0.7 µg/mL | 48.72% | 3.43% | 0.70% | 10.05% | soluble in pyridine and is partially soluble in ethanol, methanol, acetonitrile, acetone, DMF and DMSO | 0.7 µg/mL | 0.7 µg/mL | 1.67 ± 0.28 µg/mL | 0.82 ± 0.6 µg/mL | <0.2 µg/mL | – |
| COc1cccc(C=NNC(=O)c2ccncc2)c1[O-].COc1cccc(C=NNC(=O)c2ccncc2)c1[O-].[Zn+2] [complex 6, [Zn(L)2]] | – | – | 250 µg/mL | 250 µg/mL | 250 µg/mL | 125 µg/mL | 125 µg/mL | 63 µg/mL | 61.43% | 17.72% | 71.66% | 33.77% | soluble in pyridine, DMF and DMSO, and is partially soluble in ethanol, methanol, acetonitrile, acetone | 125 µg/mL | 125 µg/mL | 1.56 ± 0.82 µg/mL | 1.65 ± 0.06 µg/mL | <0.2 µg/mL | – |
| C[C@@H]1[C@H](O)[C@@H](C)/C=C/C=C/CC/C=C/C=C/C=C/C=C/C(O[C@H]2O[C@H](C)[C@@H](O)[C@H](N)[C@@H]2O)CC2O[C@](O)(CC(O)C(O)CCC(O)CC(O)CC(O)CC(=O)O[C@H]1C)CC(O)C2C(=O)O (stereo partly drawn) [Nystatine, reference compound] | – | – | – | – | – | – | – | – | – | – | – | – | – | 80 µg/mL (≈ 86.4 µM) | 80 µg/mL (≈ 86.4 µM) | – | – | – | – |
| [Cl][Pt-2]([Cl])([Cl])[Cl].[K+].[K+] [K2PtCl4] | 27.7 µM | 5.63 µM | – | – | – | – | – | – | – | – | – | – | – | – | – | – | – | – | – |
| COc1cccc(C=NNC(=O)c2ccncc2)c1[O-].[Cl-].[Ni+2] [complex 7, [Ni(L)(Cl)]] | 351 µM | 210 µM | 500 µg/mL | 500 µg/mL | 500 µg/mL | 500 µg/mL | 0.7 µg/mL | 0.7 µg/mL | 21.11% | 47.75% | 98.97% | – | soluble in methanol, pyridine, DMF and DMSO, and is partially soluble in acetonitrile, acetone | 125 µg/mL | 125 µg/mL | 1.91 ± 0.26 µg/mL | 2.26 ± 0.44 µg/mL | <0.2 µg/mL | – |
| [Cl][Ni][Cl] [NiCl2] | 100 µM | 16.2 µM | – | – | – | – | – | – | – | – | – | – | – | – | – | – | – | – | – |
| COc1cccc(C=NNC(=O)c2ccncc2)c1[O-].O.O.[Cl-].[Cu+2] [complex 1, [Cu(L)(Cl)]·2H2O] | 394 µM | 69.5 µM | 500 µg/mL | 500 µg/mL | 500 µg/mL | 500 µg/mL | 0.03 µg/mL | 0.015 µg/mL | 25.24% | 2.47% | 84.43% | – | soluble in acetone, acetonitrile, DMF and DMSO, and is partially soluble in ethanol and methanol | 15 µg/mL | 7 µg/mL | 1.89 ± 0.20 µg/mL | 2.34 ± 0.28 µg/mL | <0.2 µg/mL | – |
| CC(=O)[O-].CC(=O)[O-].[Cu+2] [Cu(CH3COO)2] | 9.68 µM | 0.44 µM | – | – | – | – | – | – | – | – | – | – | – | – | – | – | – | – | about 25 fold |
| [Cu+2].[O-][Cl+3]([O-])([O-])[O-].[O-][Cl+3]([O-])([O-])[O-] [Cu(ClO4)2] | 0.39 µM | – | – | – | – | – | – | – | – | – | – | – | – | – | – | – | – | – | – |
| [Cl][Cu][Cl] [CuCl2] | 4.23 µM | 0.97 µM | – | – | – | – | – | – | – | – | – | – | – | – | – | – | – | – | – |
| NC(=O)N/N=C/c1ccc([N+](=O)[O-])o1 [Furacillinum, reference compound] | – | – | >300 µg/mL | >300 µg/mL | 37.5 µg/mL (≈ 189 µM) | 18.7 µg/mL (≈ 94.4 µM) | 9.35 µg/mL (≈ 47.2 µM) | 9.35 µg/mL (≈ 47.2 µM) | – | – | – | – | – | – | – | – | – | – | – |
| COc1cccc(C=NNC(=O)c2ccncc2)c1[O-].[Cl-].[Pt+2] [complex 8, [Pt(L)(Cl)]] | 469 µM | 78.2 µM | 500 µg/mL | 250 µg/mL | 250 µg/mL | 125 µg/mL | 0.7 µg/mL | 0.7 µg/mL | – | 21.71% | 73.45% | 20.34% | soluble in DMF and DMSO, and is partially soluble in ethanol, methanol, acetonitrile, acetone | 63 µg/mL | 63 µg/mL | 2.49 ± 0.09 µg/mL | 1.33 ± 0.05 µg/mL | <0.2 µg/mL | – |
| O=[N+]([O-])[O-].O=[N+]([O-])[O-].[Cu+2] [Cu(NO3)2] | 7.43 µM | 1.39 µM | – | – | – | – | – | – | – | – | – | – | – | – | – | – | – | – | – |
